Reference: PubChem BioAssay (NCI)
“And” between values parts separate entries of the source, which are not always exact repeats. Equal values may be shown once.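 Each compound was tested at five concentrations against cells in 96-well plates for 48 hours. GI50: concentration for 50% inhibition of growth. TGI: concentration producing complete growth inhibition.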

Assays:
Assay in all cases: NCI tumour cell line growth inhibition, 48 h
786-0 renal = test system: 786-0 renal
A498 renal = test system: A498 renal
A549 NSCLC = test system: A549 NSCLC
ACHN renal = test system: ACHN renal
BT-549 breast = test system: BT-549 breast
CAKI-1 renal = test system: CAKI-1 renal
CCRF-CEM leukemia = test system: CCRF-CEM leukemia
COLO 205 colon = test system: COLO 205 colon
DU-145 prostate = test system: DU-145 prostate
EKVX NSCLC = test system: EKVX NSCLC
HCC-2998 colon = test system: HCC-2998 colon
HCT-116 colon = test system: HCT-116 colon
HCT-15 colon = test system: HCT-15 colon
HL-60(TB) leukemia = test system: HL-60(TB) leukemia
HOP-62 NSCLC = test system: HOP-62 NSCLC
HOP-92 NSCLC = test system: HOP-92 NSCLC
HS 578T breast = test system: HS 578T breast
HT29 colon = test system: HT29 colon
IGROV1 ovarian = test system: IGROV1 ovarian
K-562 leukemia = test system: K-562 leukemia
KM12 colon = test system: KM12 colon
LOX IMVI melanoma = test system: LOX IMVI melanoma
M14 melanoma = test system: M14 melanoma
MALME-3M melanoma = test system: MALME-3M melanoma
MCF7 breast = test system: MCF7 breast
MDA-MB-231 breast = test system: MDA-MB-231 breast
MDA-MB-435 = test system: MDA-MB-435
MOLT-4 leukemia = test system: MOLT-4 leukemia
NCI-H226 lung = test system: NCI-H226 lung
NCI-H23 lung = test system: NCI-H23 lung
NCI-H460 lung = test system: NCI-H460 lung
NCI-H522 lung = test system: NCI-H522 lung
NCI/ADR-RES ovarian = test system: NCI/ADR-RES ovarian
OVCAR-3 ovarian = test system: OVCAR-3 ovarian
OVCAR-4 ovarian = test system: OVCAR-4 ovarian
OVCAR-5 ovarian = test system: OVCAR-5 ovarian
OVCAR-8 ovarian = test system: OVCAR-8 ovarian
PC-3 prostate = test system: PC-3 prostate
RPMI-8226 leukemia = test system: RPMI-8226 leukemia
RXF 393 renal = test system: RXF 393 renal
SF-268 CNS = test system: SF-268 CNS
SF-295 CNS = test system: SF-295 CNS
SF-539 CNS = test system: SF-539 CNS
SK-MEL-2 melanoma = test system: SK-MEL-2 melanoma
SK-MEL-28 melanoma = test system: SK-MEL-28 melanoma
SK-MEL-5 melanoma = test system: SK-MEL-5 melanoma
SK-OV-3 ovarian = test system: SK-OV-3 ovarian
SN12C renal = test system: SN12C renal
SNB-19 CNS = test system: SNB-19 CNS
SNB-75 CNS = test system: SNB-75 CNS
SR leukemia = test system: SR leukemia
SW-620 colon = test system: SW-620 colon
T-47D breast = test system: T-47D breast
TK-10 renal = test system: TK-10 renal
U251 CNS = test system: U251 CNS
UACC-257 melanoma = test system: UACC-257 melanoma
UACC-62 melanoma = test system: UACC-62 melanoma
UO-31 renal = test system: UO-31 renal

O=C(NOCCO)c1cc(CN2OCCCC2=O)c(F)c(F)c1Nc1ccc(I)cc1F
GI50 (786-0 renal): 15.7 µM and > 10 µM
TGI (786-0 renal): > 92.2 µM
GI50 (A498 renal): < 0.01 µM and 0.00948 µM
TGI (A498 renal): 0.0355 µM and 0.115 µM
GI50 (A549 NSCLC): 0.464 µM and 0.156 µM
TGI (A549 NSCLC): > 86.2 µM
GI50 (ACHN renal): 4.28 µM
TGI (ACHN renal): > 100 µM
GI50 (BT-549 breast): 17.3 µM and > 10 µM
TGI (BT-549 breast): > 100 µM
GI50 (CAKI-1 renal): 0.29 µM
TGI (CAKI-1 renal): > 40.5 µM
GI50 (CCRF-CEM leukemia): 39.5 µM and > 10 µM
TGI (CCRF-CEM leukemia): > 100 µM
GI50 (COLO 205 colon): < 0.01 µM and 0.00219 µM
TGI (COLO 205 colon): 14.9 µM and > 10 µM
GI50 (DU-145 prostate): 12 µM and > 8.73 µM
TGI (DU-145 prostate): > 100 µM
GI50 (EKVX NSCLC): 0.0599 µM and 0.0806 µM
TGI (EKVX NSCLC): > 74.5 µM
GI50 (HCC-2998 colon): < 0.0111 µM and 0.00172 µM
GI50 (HCT-116 colon): 0.0171 µM and 0.0207 µM
TGI (HCT-116 colon): 28.6 µM and > 10 µM
GI50 (HCT-15 colon): 5.74 µM and > 6.24 µM
TGI (HCT-15 colon): > 100 µM
GI50 (HL-60(TB) leukemia): < 0.01 µM and 0.00194 µM
TGI (HL-60(TB) leukemia): > 57 µM
GI50 (HOP-62 NSCLC): 0.0195 µM
TGI (HOP-62 NSCLC): > 100 µM
GI50 (HOP-92 NSCLC): 0.0223 µM and 0.0177 µM
TGI (HOP-92 NSCLC): 0.688 µM and 0.436 µM
GI50 (HS 578T breast): 20.6 µM and > 10 µM
TGI (HS 578T breast): > 100 µM
GI50 (HT29 colon): < 0.01 µM and 0.0029 µM
TGI (HT29 colon): > 42.7 µM
GI50 (IGROV1 ovarian): 0.101 µM and 0.0246 µM
TGI (IGROV1 ovarian): > 52.5 µM
GI50 (K-562 leukemia): 1.01 µM and 1.42 µM
TGI (K-562 leukemia): > 100 µM
GI50 (KM12 colon): 0.0561 µM and 0.0719 µM
TGI (KM12 colon): > 100 µM
GI50 (LOX IMVI melanoma): 0.112 µM and 0.164 µM
TGI (LOX IMVI melanoma): 12.2 µM and > 10 µM
GI50 (M14 melanoma): < 0.01 µM and 0.00226 µM
TGI (M14 melanoma): 0.0237 µM
GI50 (MALME-3M melanoma): < 0.01 µM and 0.00185 µM
TGI (MALME-3M melanoma): < 0.01 µM
GI50 (MCF7 breast): 28.8 µM and > 10 µM
TGI (MCF7 breast): > 100 µM
GI50 (MDA-MB-231 breast): 0.243 µM and 0.116 µM
TGI (MDA-MB-231 breast): 62.2 µM and > 10 µM
GI50 (MDA-MB-435): < 0.01 µM and 0.00879 µM
TGI (MDA-MB-435): 77.1 µM and > 10 µM
GI50 (MOLT-4 leukemia): 38.2 µM and > 10 µM
TGI (MOLT-4 leukemia): > 100 µM
GI50 (NCI-H226 lung): 1.89 µM and 9.97 µM
TGI (NCI-H226 lung): > 100 µM
GI50 (NCI-H23 lung): < 0.0222 µM and 0.0545 µM
TGI (NCI-H23 lung): 26.5 µM and > 10 µM
GI50 (NCI-H460 lung): 12.9 µM and > 10 µM
TGI (NCI-H460 lung): > 100 µM
GI50 (NCI-H522 lung): 18.3 µM and > 7.9 µM
TGI (NCI-H522 lung): > 65.4 µM
GI50 (NCI/ADR-RES ovarian): 19.4 µM and > 10 µM
TGI (NCI/ADR-RES ovarian): > 100 µM
GI50 (OVCAR-3 ovarian): 28.9 µM and > 10 µM
TGI (OVCAR-3 ovarian): 98.7 µM and > 10 µM
GI50 (OVCAR-4 ovarian): 6.13 µM and > 7.82 µM
TGI (OVCAR-4 ovarian): > 90.4 µM
GI50 (OVCAR-5 ovarian): < 0.01 µM and 0.00485 µM
TGI (OVCAR-5 ovarian): > 100 µM
GI50 (OVCAR-8 ovarian): 12.6 µM and > 7.77 µM
TGI (OVCAR-8 ovarian): > 100 µM
GI50 (PC-3 prostate): 31.7 µM and > 10 µM
TGI (PC-3 prostate): > 84.3 µM
GI50 (RPMI-8226 leukemia): 21.7 µM and > 5.14 µM
TGI (RPMI-8226 leukemia): > 84.4 µM
GI50 (RXF 393 renal): 0.521 µM and 0.336 µM
TGI (RXF 393 renal): 25.9 µM and > 10 µM
GI50 (SF-268 CNS): 22.6 µM and > 10 µM
TGI (SF-268 CNS): > 100 µM
GI50 (SF-295 CNS): 16.9 µM and > 10 µM
TGI (SF-295 CNS): > 75.4 µM
GI50 (SF-539 CNS): 8.61 µM and > 10 µM
TGI (SF-539 CNS): 66 µM and > 10 µM
GI50 (SK-MEL-2 melanoma): < 0.01 µM and 0.00324 µM
GI50 (SK-MEL-28 melanoma): < 0.01 µM and 0.00249 µM
TGI (SK-MEL-28 melanoma): 0.0712 µM and 0.124 µM
GI50 (SK-MEL-5 melanoma): 0.597 µM
TGI (SK-MEL-5 melanoma): 23.9 µM and > 10 µM
GI50 (SK-OV-3 ovarian): 22.6 µM and > 2.5 µM
TGI (SK-OV-3 ovarian): > 85.8 µM
GI50 (SN12C renal): 2.15 µM and 2.17 µM
TGI (SN12C renal): > 100 µM
GI50 (SNB-19 CNS): 3.68 µM and 1.64 µM
TGI (SNB-19 CNS): > 100 µM
GI50 (SNB-75 CNS): 16.4 µM and > 3.83 µM
TGI (SNB-75 CNS): > 100 µM
GI50 (SR leukemia): 19.9 µM and > 10 µM
TGI (SR leukemia): > 100 µM
GI50 (SW-620 colon): < 0.01 µM and 0.00529 µM
TGI (SW-620 colon): > 100 µM
GI50 (T-47D breast): 29.4 µM and > 10 µM
TGI (T-47D breast): > 100 µM
TGI (TK-10 renal): > 100 µM
GI50 (U251 CNS): 0.362 µM and 0.479 µM
TGI (U251 CNS): 23.8 µM and > 10 µM
GI50 (UACC-257 melanoma): < 0.01 µM and 0.00204 µM
TGI (UACC-257 melanoma): 0.0393 µM and < 0.0128 µM
GI50 (UACC-62 melanoma): < 0.01 µM
GI50 (UO-31 renal): 0.17 µM and 0.164 µM
TGI (UO-31 renal): 13.1 µM and > 10 µM
